Reference: paper PMC8552601, “Entamoeba Chitinase is Required for Mature Round Cyst Formation” (Microbiology Spectrum, 2021)

How the values were obtained:
Format in all cases: biochemical
[1] = target: T1, Entamoeba invadens chitinase 4 (rEiCht4) (Entamoeba invadens, UniProt A0A0A1TXF4); assay: 4-MU release by purified recombinant enzyme, specific activity
T1 construct: gene EIN_136020

[2] = target: T2, Entamoeba invadens chitinase 1 (rEiCht1) (Entamoeba invadens, UniProt A0A0A1U6V8); assay: as above
T2 construct: gene EIN_404540

[3] = target: T2, Entamoeba invadens chitinase 1 (rEiCht1); assay: fluorogenic 4MU-(GlcNAc)[…] hydrolysis assay with purified recombinant enzyme
[4] = target: T1, Entamoeba invadens chitinase 4 (rEiCht4); assay: as above

T2 sequence (A0A0A1U6V8 entry or part of it): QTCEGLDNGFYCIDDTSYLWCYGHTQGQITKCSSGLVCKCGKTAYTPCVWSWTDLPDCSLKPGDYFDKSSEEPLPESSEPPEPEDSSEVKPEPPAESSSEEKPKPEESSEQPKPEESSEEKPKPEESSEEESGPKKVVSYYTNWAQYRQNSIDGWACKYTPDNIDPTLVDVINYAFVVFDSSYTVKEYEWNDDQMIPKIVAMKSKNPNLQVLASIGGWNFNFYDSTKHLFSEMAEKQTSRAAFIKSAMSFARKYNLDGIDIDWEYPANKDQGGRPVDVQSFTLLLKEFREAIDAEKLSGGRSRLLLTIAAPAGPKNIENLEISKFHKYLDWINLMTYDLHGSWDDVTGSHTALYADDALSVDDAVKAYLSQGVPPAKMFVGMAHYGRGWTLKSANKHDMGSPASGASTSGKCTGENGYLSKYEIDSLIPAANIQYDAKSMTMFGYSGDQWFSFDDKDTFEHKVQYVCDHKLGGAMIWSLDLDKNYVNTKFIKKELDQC
T1 sequence (A0A0A1TXF4 entry or part of it): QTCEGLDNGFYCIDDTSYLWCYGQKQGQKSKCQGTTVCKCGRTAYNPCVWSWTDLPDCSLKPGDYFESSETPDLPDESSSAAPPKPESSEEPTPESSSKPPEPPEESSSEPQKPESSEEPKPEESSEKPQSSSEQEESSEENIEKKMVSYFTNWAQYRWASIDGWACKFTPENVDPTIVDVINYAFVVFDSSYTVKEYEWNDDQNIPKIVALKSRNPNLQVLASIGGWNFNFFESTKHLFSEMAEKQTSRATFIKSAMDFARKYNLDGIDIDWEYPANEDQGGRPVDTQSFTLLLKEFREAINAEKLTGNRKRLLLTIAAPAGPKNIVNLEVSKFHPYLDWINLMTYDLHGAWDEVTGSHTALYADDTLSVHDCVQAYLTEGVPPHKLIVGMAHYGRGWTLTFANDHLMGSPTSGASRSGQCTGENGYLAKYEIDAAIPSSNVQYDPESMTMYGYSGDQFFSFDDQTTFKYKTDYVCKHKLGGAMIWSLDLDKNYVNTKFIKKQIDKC

SMILES	4-MU release by purified recombinant enzyme, specific activity [1] [μmol/min/mg protein]	4-MU release by purified recombinant enzyme, specific activity [2] [μmol/min/mg protein]	IC50 [3] [nM]	IC50 [4] [nM]
CC(=O)N[C@H]1[C@H](Oc2ccc3c(C)cc(=O)oc3c2)O[C@H](CO)[C@@H](O[C@@H]2O[C@H](CO)[C@@H](O[C@@H]3O[C@H](CO)[C@@H](O)[C@H](O)[C@H]3NC(C)=O)[C@H](O)[C@H]2NC(C)=O)[C@@H]1O [4-methylumbelliferyl β-D-N,N′,N′′-triacetylchitotrioside]	6.3 ± 1.1	11.7 ± 5.3	–	–
Cc1nn(C)c(C)c1NS(=O)(=O)c1c(Cl)cc(-c2ccnc(N3CCNCC3)c2)cc1Cl [D-B-09, 2,6-dichloro-4-[2-(1-piperazinyl)-4-pyridinyl]-N-(1,3,5-trimethyl-1H-pyrazol-4-yl)-benzenesulfonamide]	–	–	800 ± 200	2500 ± 1300
